Measured values published in patent publication US20050245399A1, “Pyrazole derivatives as herbicidal compositions containing them” (ISHIHARA SANGYO KAISHA, LTD., priority 2004, published 2005).

Key:
Assay type in all cases: in vivo
[1] = test system: corn (Zea mays L.), ZEAMX; test: Test Example 2 post-emergence (foliage treatment) herbicidal activity, ZEAMX; settings: 63 g a.i./ha
Method in brief: (§1)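 Foliar spray of formulated compound (500 L/ha dilution water, 0.1% v/v spreader) onto young potted plants at defined leaf stages. Scored 0-100% by visual inspection 20-23 d post-spray.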

[2] = test system: corn (Zea mays L.): ZEAMX; test: Test Example 1 pre-emergence herbicidal activity, ZEAMX; settings: Rate 63 g a.i./ha, visually observed 20th to 23rd day after application
Method in brief: (§2)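 Pots of upland soil were sown, and one day later WP or EC formulations at set active-ingredient rates were sprayed pre-emergence in 500 L/ha water. Growth control scored visually 20–23 days after application, 0 (as untreated) to 100 (complete kill).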

[3] = test system: velvetleaf (Abutilon theophrasti), ABUTH; test: Test Example 2 post-emergence (foliage treatment) herbicidal activity, ABUTH; settings: 63 g a.i./ha
Method in brief: as §1

[4] = test system: rice (Oryza sativa L.): ORYSA; test: Test Example 1 pre-emergence herbicidal activity, ORYSA; settings: Rate 63 g a.i./ha, visually observed 20th to 23rd day after application
Method in brief: as §2

[5] = test system: crabgrass (Digitaria sanguinalis L.), DIGSA; test: Test Example 2 post-emergence (foliage treatment) herbicidal activity, DIGSA; settings: 63 g a.i./ha
Method in brief: (§3)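 Plants grown in upland soil pots were sprayed on foliage at set leaf stages (ECHCG 1.1-2.1, DIGSA 1.0-2.0, AMARE 0.1-1.5, ORYSA 1.0-2). Formulated compound was applied at predetermined active-ingredient amounts in 500 L/ha water with 0.1% (v/v) spreader. Growth control (0–100%) was visually scored 20–23 days later.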

[6] = test system: prickly sida (Sida spinosa L.): SEDSP; test: Test Example 1 pre-emergence herbicidal activity, SIDSP; settings: Rate 63 g a.i./ha, visually observed 20th to 23rd day after application
Method in brief: as §2

[7] = test system: redroot pigweed (Amaranthus retroflexus L.), AMARE; test: Test Example 2 post-emergence (foliage treatment) herbicidal activity, AMARE; settings: 63 g a.i./ha
Description: (§4) Upland field soil was put into a 1/170,000 ha pot, and seeds of various plants were sown. Then, when the plants reached predetermined leaf stages {1. barnyardgrass (Echinochloa crus-galli L.), ECHCG: 1.1-2.1 leaf stage, 2. crabgrass (Digitaria sanguinalis L.), DIGSA: 1.0-2.0 leaf stage, 3. green foxtail (Setaria viridis L.), SETVI: 1.0-2.2 leaf stage, 4. redroot pigweed (Amaranthus retroflexus L.), AMARE: 0.1-1.5 leaf stage, 5. prickly sida (Sida spinosa L.), SIDSP: 0.1-0.6 leaf stage, 6. velvetleaf (Abutilon theophrasti), ABUTH: 0.1-0.6 leaf stage, 7. common cocklebur (Xanthium strumarium L.), XANST: 0.1 leaf stage, 8. rice (Oryza sativa L.), ORYSA; 1.0-2 leaf stage, 9. wheat (Triticum aestivum L.), TRZAX: 2.3-3.5 leaf stage, 10. corn (Zea mays L.), ZEAMXN 2.1-2.6 leaf stage, 11. soybean (Glycine max Merr.), GLXMA: primary leaf stage}, a wettable powder or emulsifiable concentrate having the compound of the present invention formulated in accordance with a usual formulation method, was weighed so that the active ingredient would be a predetermined amount, and diluted with water in an amount of 500 L/ha. To the diluted solution, 0.1% (v/v) of an agricultural spreader was added. The herbicide adjusted was applied by a small size sprayer for foliage treatment. On the 20th to 23rd day after the application of the herbicide, the growth of the respective plants was visually observed, and the herbicidal effects were evaluated by growth controlling degrees (%) ranging from 0 (equivalent to the untreated control) to 100 (complete kill), whereby the results shown in Table 5, were obtained. Compound Nos. in Table 5 correspond to Compound Nos. in Table 1 and 2 given hereinbefore.

[8] = test system: rice (Oryza sativa L.), ORYSA; test: Test Example 2 post-emergence (foliage treatment) herbicidal activity, ORYSA; settings: 63 g a.i./ha
Method in brief: as §3

[9] = test system: redroot pigweed (Amaranthus retroflexus L.): AMARE; test: Test Example 1 pre-emergence herbicidal activity, AMARE; settings: Rate 63 g a.i./ha, visually observed 20th to 23rd day after application
Method in brief: as §2

[10] = test system: soybean (Glycine max Merr.): GLXMA; test: Test Example 1 pre-emergence herbicidal activity, GLXMA; settings: Rate 63 g a.i./ha, visually observed 20th to 23rd day after application
Method in brief: as §2

[11] = test system: wheat (Triticum aestivum L.): TRZAX; test: Test Example 1 pre-emergence herbicidal activity, TRZAX; settings: Rate 63 g a.i./ha, visually observed 20th to 23rd day after application
Method in brief: as §2

[12] = test system: barnyardgrass (Echinochloa crus-galli L.), ECHCG; test: Test Example 2 post-emergence (foliage treatment) herbicidal activity, ECHCG; settings: 63 g a.i./ha
Method in brief: as §3

[13] = test system: prickly sida (Sida spinosa L.), SIDSP; test: Test Example 2 post-emergence (foliage treatment) herbicidal activity, SIDSP; settings: 63 g a.i./ha
Description: as §4

[14] = test system: crabgrass (Digitaria sanguinalis L.): DIGSA; test: Test Example 1 pre-emergence herbicidal activity, DIGSA; settings: Rate 63 g a.i./ha, visually observed 20th to 23rd day after application
Method in brief: as §2

[15] = test system: wheat (Triticum aestivum L.), TRZAX; test: Test Example 2 post-emergence (foliage treatment) herbicidal activity, TRZAX; settings: 63 g a.i./ha
Method in brief: as §1

[16] = test system: velvetleaf (Abutilon theophrasti): ABUTH; test: Test Example 1 pre-emergence herbicidal activity, ABUTH; settings: Rate 63 g a.i./ha, visually observed 20th to 23rd day after application
Method in brief: as §2

[17] = test system: soybean (Glycine max Merr.), GLXMA; test: Test Example 2 post-emergence (foliage treatment) herbicidal activity, GLXMA; settings: 63 g a.i./ha
Method in brief: as §1

[18] = test system: barnyardgrass (Echinochloa crus-galli L.): ECHCG; test: Test Example 1 pre-emergence herbicidal activity, ECHCG; settings: Rate 63 g a.i./ha, visually observed 20th to 23rd day after application
Method in brief: as §2

[19] = test system: green foxtail (Setaria viridis L.): SETVI; test: Test Example 1 pre-emergence herbicidal activity, SETVI; settings: Rate 63 g a.i./ha, visually observed 20th to 23rd day after application
Method in brief: as §2

[20] = test system: green foxtail (Setaria viridis L.), SETVI; test: Test Example 2 post-emergence (foliage treatment) herbicidal activity, SETVI; settings: 63 g a.i./ha
Method in brief: as §1

| SMILES | growth controlling degree, ZEAMX [1] [%] | Pre-emergence Herbicidal Activity ZEAMX (growth controlling degree) [2] [%] | growth controlling degree, ABUTH [3] [%] | Pre-emergence Herbicidal Activity ORYSA (growth controlling degree) [4] [%] | growth controlling degree, DIGSP [5] [%] | Pre-emergence Herbicidal Activity SIDSP (growth controlling degree) [6] [%] | growth controlling degree, AMARE [7] [%] | growth controlling degree, ORYSA [8] [%] | Pre-emergence Herbicidal Activity AMARE (growth controlling degree) [9] [%] | Pre-emergence Herbicidal Activity GLXMA (growth controlling degree) [10] [%] | Pre-emergence Herbicidal Activity TRZAX (growth controlling degree) [11] [%] | growth controlling degree, ECHCO [12] [%] | growth controlling degree, SIDSP [13] [%] | Pre-emergence Herbicidal Activity DIGSP (growth controlling degree) [14] [%] | growth controlling degree, TRZAX [15] [%] | Pre-emergence Herbicidal Activity ABUTH (growth controlling degree) [16] [%] | growth controlling degree, GLXMA [17] [%] | Pre-emergence Herbicidal Activity ECHCG (growth controlling degree) [18] [%] | Pre-emergence Herbicidal Activity SETVI (growth controlling degree) [19] [%] | growth controlling degree, SETVI [20] [%] |
| --- | --- | --- | --- | --- | --- | --- | --- | --- | --- | --- | --- | --- | --- | --- | --- | --- | --- | --- | --- | --- |
| COc1c(Cl)cc(F)c(-c2nn(C)c(OC(F)F)c2Cl)c1NC(=O)CCc1ccccc1C [Compound 1-37] | 70 | 0 | 100 | 20 | 80 | 95 | 100 | 90 | 100 | 0 | 30 | 98 | 100 | 100 | 50 | 40 | 98 | 60 | 80 |  |
| COc1c(Cl)cc(F)c(-c2nn(C)c(OC(F)F)c2Cl)c1NC(=O)C(C)(C)Oc1ccccc1 [Compound 1-38] | 10 | 0 | 100 | 0 | 20 | 0 | 100 | 40 | 20 | 0 | 0 | 50 | 100 | 10 | 10 | 0 | 30 | 0 | 20 | 50 |
| COc1c(Cl)cc(F)c(-c2nn(C)c(OC(F)F)c2Cl)c1NCCc1cccc(C)c1 [Compound 1-50] | 80 | 10 | 100 | 20 | 90 | 100 | 100 | 95 | 100 | 10 | 30 | 100 | 100 | 100 | 70 | 100 | 95 | 70 | 100 |  |
